Assay results as given in patent US20250388584A1, “TPK AGONIST AND METHOD FOR TREATING NEURODEGENERATIVE DISEASES USING SAME” (SHANGHAI RAISING PHARMACEUTICAL CO., LTD., priority 2022, published 2025).
pEC50: −log10 of the molar value. Read-outs that look alike come from different tables or passages of the source.

Target: TPK enzyme (Homo sapiens (Human), UniProt Q9H3S4)
Assay: TPK enzyme activity test
Format: biochemical
Conditions: for Emax: calculated with the effect of DMSO on TPK enzyme activity as 100%; for pEC50: promoting effect on TPK enzyme activity

TPK enzyme, sequence (Q9H3S4 whole entry): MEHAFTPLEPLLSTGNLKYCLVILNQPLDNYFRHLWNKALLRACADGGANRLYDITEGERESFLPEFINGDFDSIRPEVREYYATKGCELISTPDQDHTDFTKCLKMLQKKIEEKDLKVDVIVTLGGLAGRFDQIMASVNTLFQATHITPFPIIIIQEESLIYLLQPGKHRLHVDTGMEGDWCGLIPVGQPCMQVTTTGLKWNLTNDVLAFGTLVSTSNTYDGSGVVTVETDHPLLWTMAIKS

Row | Structure (SMILES) | Emax (read-out: Emax) [%] | pEC50 | Emax [%]
1 | O=C(CCn1cnc2c([nH]c3ccc(F)cc32)c1=O)N1CCC(Cc2ccc(F)cc2)CC1 [Compound 154, 8-fluoro-3-(3-(4-(4-fluorobenzyl)piperidin-1-yl)-3-oxopropyl)-3,5-dihydro-4H-pyrimido[5,4-b]indol-4-one] | 144 | 5.59 | –
2 | Cc1ccc2[nH]c3c(=O)n(CCC(=O)N4CCC(Cc5ccc(F)cc5)CC4)cnc3c2c1 [Compound 164] | – | 5.63 | –
3 | Cc1ccc2[nH]c3c(=O)n(CCC(=O)N4CCC(O)(c5cccc(C(F)(F)F)c5)CC4)cnc3c2c1 [Compound 165, 3-(3-(4-hydroxy-4-(3-(trifluoromethyl)phenyl)piperidin-1-yl)-3-oxopropyl)-8-methyl-3,5-dihydro-4H-pyrimido[5,4-b]indol-4-one] | 157 | 5.60 | –
4 | Cc1ccc2[nH]c3c(=O)n(CCC(=O)N4CCC(N(C)c5cccc(Cl)c5Cl)CC4)cnc3c2c1 [Compound 166, 3-(3-(4-((2,3-dichlorophenyl)(methyl)amino)piperidin-1-yl)-3-oxopropyl)-8-methyl-3,5-dihydro-4H-pyrimido[5,4-b]indol-4-one] | 119 | 6.31 | –
5 | Cc1ccc2[nH]c3c(=O)n(CCC(=O)N4CCN(c5ccc(S(=O)(=O)N6CCCCC6)cc5)CC4)cnc3c2c1 [Compound 169, 8-methyl-3-(3-oxo-3-(4-(4-(piperidin-1-ylsulfonyl)phenyl)piperazin-1-yl)propyl)-3,5-dihydro-4H-pyri mid[5,4-b]indol-4-one] | 147 | 5.67 | –
6 | Cc1ccc2[nH]c3c(=O)n(CCC(=O)N4CCN(c5cccc(S(=O)(=O)N6CCCCC6)c5)CC4)cnc3c2c1 [Compound 170, 8-methyl-3-(3-oxo-3-(4-(3-(piperidin-1-ylsulfonyl)phenyl)piperazin-1-yl)propyl)-3,5-dihydro-4H-pyrimido[5,4-b]indol-4-one] | 151 | 5.63 | –
7 | COC(=O)CCC(=O)OCCN1CCN(CCCN2c3ccccc3Sc3ccc(C(F)(F)F)cc32)CC1 [Compound 184, methyl (2-(4-(3-(2-(trifluoromethyl)-10H-phenothiazin-10-yl)propyl)piperazin-1-yl)ethyl) Succinate] | – | – | 176
8 | O=C1CCCCN1CCCN1c2ccccc2Sc2ccccc21 [Compound 186, 1-(3-(10H-phenothiazin-10-yl)propyl)piperidin-2-one] | 176 | 5.58 | –
9 | O=C1CCCCN1CCCCCCN1c2ccccc2Sc2ccc(C(F)(F)F)cc21 [Compound 187, 1-(6-(2-(trifluoromethyl)-10H-phenothiazin-10-yl)hexyl)piperidin-2-one] | 191 | 5.95 | –
10 | O=C1c2ccccc2CN1CCCN1c2ccccc2Sc2ccccc21 [Compound 189, 2-(3-(10H-phenothiazin-10-yl)propyl)isoindolin-1-one] | 180 | 5.92 | –
11 | O=C1Cc2ccc(OCCCN3c4ccccc4Sc4ccccc43)cc2N1 [Compound 190, 6-(3-(10H-phenothiazin-10-yl)propoxy)indoline-2-one] | 164 | 5.96 | –
12 | O=C1CCCCN1CCCCCCN1CCSc2ccc(C(F)(F)F)cc21 [Compound 193, 1-(6-(6-(trifluoromethyl)-2,3-dihydro-4H-benzo[b][1,4]thiazin-4-yl)hexyl)piperidin-2-one] | 178 | 5.13 | –
13 | O=C1CCCCN1CCCN1CCSc2ccc(C(F)(F)F)cc21 [Compound 194, 1-(3-(6-(trifluoromethyl)-2,3-dihydro-4H-benzo[b][1,4]thiazin-4-yl)propyl)piperidin-2-one] | 139 | – | –
14 | O=C1CCCCN1CCCCCCN1C(=O)CSc2ccc(C(F)(F)F)cc21 [Compound 195, 4-(6-(2-oxopiperidin-1-yl)hexyl)-6-(trifluoromethyl)-2H-benzo[b][1,4]thiazin-3(4H)-one] | 136 | – | –
15 | O=C1c2ccccc2CN1CCCN1CCSc2ccc(C(F)(F)F)cc21 [Compound 197, 2-(3-(6-(trifluoromethyl)-2,3-dihydro-4H-benzo[b][1,4]thiazin-4-yl)propyl)isoindolin-1-one] | 132 | – | –
16 | O=C(O)CCC(=O)OCCN1CCN(CCC(=O)N2c3ccccc3Sc3ccc(C(F)(F)F)cc32)CC1 [Compound 199] | 204 | 6.31 | –
17 | O=C(CCN1c2ccccc2Sc2ccccc21)NCCN1CCOCC1 [Compound 200] | 168 | 8.53 | –
18 | O=C1CCc2ccc(OCCCCN3c4ccccc4Sc4ccc(C(F)(F)F)cc43)cc2N1 [Compound 204] | – | 6.97 | 186.22
19 | O=C1CCc2ccc(OCCCCN3c4ccccc4Sc4ccc(C(F)(F)F)cc43)cc2N1 [Compound 205, 7-(4-(2-(trifluoromethyl)-10H-phenothiazin-10-yl)butoxy)-3,4-dihydroquinolin-2(1H)-one] | – | – | 137.51
20 | O=C1CCc2ccc(OCCCCCN3c4ccccc4Sc4ccc(C(F)(F)F)cc43)cc2N1 [Compound 206, 7-((5-(2-(trifluoromethyl)-10H-phenothiazin-10-yl)pentyl)oxy)-3,4-dihydroquinolin-2(1H)-one] | 165 | 5.84 | –
21 | O=C1CCc2ccc(OCCCCCCN3c4ccccc4Sc4ccc(C(F)(F)F)cc43)cc2N1 [Compound 207, 7-((6-(2-(trifluoromethyl)-10H-phenothiazin-10-yl)hexyl)oxy)-3,4-dihydroquinolin-2(1H)-one] | 129 | – | –
22 | COc1ccc2[nH]c(=O)c3c(ccn3CCCN3CCN(c4cccc(C(F)(F)F)c4)CC3)c2c1 [Compound 210, 8-methoxy-3-(3-(4-(3-(trifluoromethyl)phenyl)piperazin-1-yl)propyl)-3,5-dihydro-4H-pyrrolo[2,3-c]quinolin-4-one] | 166 | 5.74 | –
23 | Cc1ccc2c(c1)-c1nc(=O)n(CCCN3CCN(c4cccc(Cl)c4Cl)CC3)cc1CO2 [Compound 213, 3-(3-(4-(2,3-dichlorophenyl)piperazin-1-yl)propyl)-9-methyl-3,5-dihydro-2H-chromeno[4,3-d]pyrimidin-2-one] | 174 | 6.26 | –
24 | Cc1ccc2c(c1)-c1nc(=O)n(CCC(=O)N3CCN(c4cccc(Cl)c4Cl)CC3)cc1CO2 [Compound 214] | – | 5.62 | 137.60
25 | Cc1ccc2c(c1)-c1ncn(CCC(=O)N3CCN(c4cccc(C(F)(F)F)c4)CC3)c(=O)c1CC2 [Compound 215, 9-methyl-3-(3-oxo-3-(4-(3-(trifluoromethyl)phenyl)piperazin-1-yl)propyl)-5,6-dihydrobenzo[h]quinazolin-4(3H)-one] | 173 | 5.95 | –
26 | Cc1ccc2ncc3c(=O)n(CCCC(=O)N4CCN(c5cccc(Cl)c5Cl)CC4)cnc3c2c1 [Compound 217, 3-(4-(4-(2,3-dichlorophenyl)piperazin-1-yl)-4-oxobutyl)-9-methylpyrimido[5,4-c]quinolin-4(3H)-one] | 153 | 5.83 | –
27 | Cc1ccc2ncc3c(=O)n(CCCC(=O)N4CCC(Cc5ccc(F)cc5)CC4)cnc3c2c1 [Compound 218, 3-(4-(4-(4-fluorobenzyl)piperidin-1-yl)-4-oxobutyl)-9-methylpyrimido[5,4-c]quinolin-4(3H)-one] | – | 6.21 | –
28 | Cc1ccc2c(c1)-c1nc(=O)n(CCCC(=O)N3CCC(Cc4ccc(F)cc4)CC3)cc1CO2 [Compound 220, 3-(4-(4-(4-fluorobenzyl)piperidin-1-yl)-4-oxobutyl)-9-methyl-3,5-dihydro-2H-chromeno[4,3-d]pyrimidin-2-one] | 157 | 5.41 | –
